Assays:
Conditions in all cases: incubation time: 72 h
BT-474 [1] = assay: normalised response (% of control), CellTox Green; higher = less cell death (100 = DMSO, 0 = benzethonium chloride kill control)
Outline: (§1)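 Compound was dispensed into 384-well plates at 5 concentrations in 10-fold steps spanning a 10,000-fold range specific to that compound. Breast cancer cell lines were added as 20 µl suspension and left for 72 h before CellTox Green fluorescence (485/520 nm) and then CellTiter-Glo luminescence, read after 10 min at room temperature. Each reported value is the normalised signal at one concentration, with 0.1 % DMSO set at 100 and a positive kill control at 0 on each plate.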

BT-549 [2] = assay: as above
Outline: as §1

CAL-120 [3] = assay: as above
Outline: as §1

CAL-148 [4] = assay: as above
Outline: as §1

CAL-51 [5] = assay: as above
Outline: as §1

CAL-85-1 [6] = assay: as above
Outline: as §1

DU-4475 [7] = assay: as above
Outline: as §1

HCC1143 [8] = assay: as above
Outline: as §1

HCC1599 [9] = assay: as above
Outline: as §1

HCC1937 [10] = assay: as above
Outline: as §1

HDQ-P1 [11] = assay: as above
Outline: as §1

Hs578T [12] = assay: as above
Outline: as §1

MCF-10A [13] = assay: as above
Outline: as §1

MDA-MB-231 [14] = assay: as above
Outline: as §1

MDA-MB-436 [15] = assay: as above
Outline: as §1

MDA-MB-453 [16] = assay: as above
Outline: as §1

MDA-MB-468 [17] = assay: as above
Outline: as §1

MFM-223 [18] = assay: as above
Outline: as §1

BT-474 [19] = assay: normalised response (% of control), CellTiter-Glo; higher = more viable cells (100 = DMSO, 0 = benzethonium chloride kill control)
Description: (§2)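 DSRT, 72 h incubation, CellTox Green / CellTiter-Glo readout. Signal is normalised to DMSO and benzethonium chloride controls. Value is the normalised response at the highest dose.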

BT-549 [20] = assay: as above
Description: as §2

CAL-120 [21] = assay: as above
Description: as §2

CAL-148 [22] = assay: as above
Description: as §2

CAL-51 [23] = assay: as above
Description: as §2

CAL-85-1 [24] = assay: as above
Description: as §2

DU-4475 [25] = assay: as above
Description: as §2

HCC1143 [26] = assay: as above
Description: as §2

HCC1599 [27] = assay: as above
Description: as §2

HCC1937 [28] = assay: as above
Description: as §2

HDQ-P1 [29] = assay: as above
Description: as §2

Hs578T [30] = assay: as above
Description: as §2

MCF-10A [31] = assay: as above
Description: as §2

MDA-MB-231 [32] = assay: as above
Description: as §2

MDA-MB-436 [33] = assay: as above
Description: as §2

MDA-MB-453 [34] = assay: as above
Description: as §2

MDA-MB-468 [35] = assay: as above
Description: as §2

MFM-223 [36] = assay: as above
Description: as §2

SK-BR-3 = assay: as above
Description: as §2

Compound | normalised response (BT-474 [1]) [%] | normalised response (BT-549 [2]) [%] | normalised response (CAL-120 [3]) [%] | normalised response (CAL-148 [4]) [%] | normalised response (CAL-51 [5]) [%] | normalised response (CAL-85-1 [6]) [%] | normalised response (DU-4475 [7]) [%] | normalised response (HCC1143 [8]) [%] | normalised response (HCC1599 [9]) [%] | normalised response (HCC1937 [10]) [%] | normalised response (HDQ-P1 [11]) [%] | normalised response (Hs578T [12]) [%] | normalised response (MCF-10A [13]) [%] | normalised response (MDA-MB-231 [14]) [%] | normalised response (MDA-MB-436 [15]) [%] | normalised response (MDA-MB-453 [16]) [%] | normalised response (MDA-MB-468 [17]) [%] | normalised response (MFM-223 [18]) [%] | normalised response (BT-474 [19]) [%] | normalised response (BT-549 [20]) [%] | normalised response (CAL-120 [21]) [%] | normalised response (CAL-148 [22]) [%] | normalised response (CAL-51 [23]) [%] | normalised response (CAL-85-1 [24]) [%] | normalised response (DU-4475 [25]) [%] | normalised response (HCC1143 [26]) [%] | normalised response (HCC1599 [27]) [%] | normalised response (HCC1937 [28]) [%] | normalised response (HDQ-P1 [29]) [%] | normalised response (Hs578T [30]) [%] | normalised response (MCF-10A [31]) [%] | normalised response (MDA-MB-231 [32]) [%] | normalised response (MDA-MB-436 [33]) [%] | normalised response (MDA-MB-453 [34]) [%] | normalised response (MDA-MB-468 [35]) [%] | normalised response (MFM-223 [36]) [%] | normalised response (SK-BR-3) [%]
Nc1ncnc2c1c(COc1cccc(Cl)c1)nn2C1CCOCC1 (10000 nM) | 106 | 110 | 109 | 96 | 109 | 91.3 | 103 | 104 | 106 | 103 | 109 | 110 | 86.3 | 106 | 79.2 | 104 | 112 | 98.8 | 86.8 | 88.1 | 107 | 113 | 101 | 90.2 | 101 | 98.2 | 98.6 | 95.3 | 92.2 | 100 | 89.3 | 89.6 | 89.3 | 88.3 | 92.3 | 96.8 | 102
COc1ccc(-c2ccc3c(N4CCOC[C@@H]4C)nc(N4CCOC[C@@H]4C)nc3n2)cc1CO [AZD8055] (10000 nM) | 48 | 111 | 102 | 56.6 | 76.6 | 88.1 | 82.6 | -36.9 | 86.4 | 97.3 | 99.7 | 94.8 | 76.3 | 97.3 | 68.7 | 92.3 | 27.8 | 83.7 | 42.5 | 19.9 | 18.8 | 14.6 | 15.9 | 27.6 | 15.3 | 25.3 | 77.3 | 38.3 | 29 | 22.4 | 21.4 | 33.5 | 46.4 | 27.2 | 21 | 26.4 | 18.2
C[C@]12CC[C@H](O)CC1=CC[C@@H]1[C@@H]2CC[C@]2(C)C(c3cccnc3)=CC[C@@H]12 [Abiraterone] (5000 nM) | 99.7 | 128 | 98 | 87.5 | 96.6 | 77.8 | 111 | 107 | 113 | 120 | 62.7 | 116 | 76.5 | 122 | 111 | 110 | 151 | 101 | 97 | 96.4 | 103 | 104 | 98.4 | 112 | 99.6 | 97.1 | 107 | 97.7 | 104 | 102 | 109 | 101 | 100 | 112 | 99.3 | 103 | 104
CN(C)CCN1C(=O)c2cccc3cc(N)cc(c23)C1=O [Amonafide] (10000 nM) | 97.8 | 122 | 101 | 32.8 | 23.1 | 63.4 | 83.8 | 93.5 | 98 | 120 | 87 | 114 | 77 | 111 | 63.8 | 112 | 125 | 100 | 43.9 | 47 | 52.3 | 25.4 | 17.7 | 47.6 | 14.6 | 52.3 | 57.2 | 55.7 | 53.1 | 61.7 | 45 | 39.2 | 38.8 | 77.8 | 43.5 | 69.7 | 31.9

From the supplement of paper PMC4862054
